How the values were obtained:
[1] = test system: Echinochloa oryzicola; experiment: Submerged foliar treatment test (Test Example 3); assay type: in vivo; details: water depth 3 cm, cotyledon to 1-leaf stage, wettable powder, active ingredient 10 g/a, 28th day from the treatment
Procedure: (§1) The herbicidal effect was evaluated in terms of herbicidal rate obtained from the following equation: Herbicidal rate (%)=[1−(Weight of weeds above the ground in a treated plot)/(Weight of weeds above the ground in a non-treated plot)]×100
(§2) and was expressed by herbicidal index according to the following criteria.
(§3) Alluvial soil from a paddy field was put in a resin-made vat having an area of 200 cm^2. After fertilization, seeds of Echinochloa oryzicola, Rotala indica and Scirpus juncoides were cast on the soil and uniformly covered with the soil, and water was poured onto the soil to keep a water depth of 3 cm. Then, cultivation was continued in a greenhouse, and when the weeds to be tested reached the cotyledon stage to 1-leaf stage, the wettable powder obtained in Formulation Example 1 was diluted with water and a predetermined amount thereof was added dropwise uniformly to the weeds by means of a pipette to give 10 g of the active ingredient per an are. Thereafter, cultivation was further continued in the greenhouse, and the herbicidal effect was examined on the 28th day from the treatment. The results obtained are shown in Table 9 (the compound numbers in Table 9 correspond to those in Tables 1 to 6).

[2] = test system: Rotala indica; experiment: Submerged foliar treatment test (Test Example 3); assay type: in vivo; details: water depth 3 cm, cotyledon to 1-leaf stage, wettable powder, active ingredient 10 g/a, 28th day from the treatment
Procedure: as §1, §2, §3

[3] = test system: Scirpus juncoides; experiment: Submerged foliar treatment test (Test Example 3); assay type: in vivo; details: water depth 3 cm, cotyledon to 1-leaf stage, wettable powder, active ingredient 10 g/a, 28th day from the treatment
Procedure: as §1, §2, §3

Compound | Herbicidal effect Echinochloa oryzicola (herbicidal index) [1] | Herbicidal effect Rotala indica (herbicidal index) [2] | Herbicidal effect Scirpus juncoides (herbicidal index) [3] | melting point
Cc1cc2c(-c3cccc(Cl)c3)nc(Cl)nc2s1 [Compound No. 5-15, 2-chloro-4-(3-chlorophenyl)-6-methylthieno[2,3-d]pyrimidine] | 5 (91 to 100) | 5 (91 to 100) | 3 (51 to 70) | 118 to 120 °C
Cc1cc2c(-c3cccc(C(F)(F)F)c3)nc(C#N)nc2s1 [Compound No. 6-10, 2-cyano-6-methyl-4-[3-(trifluoromethyl)phenyl]thieno[2,3-d]pyrimidine] | 5 (91 to 100) | 5 (91 to 100) | 4 (71 to 90) | 121 to 122 °C
Cc1cc2c(-c3cccc(C(F)(F)F)c3)nc(COCC(F)(F)F)nc2s1 [Compound No. 6-17, 6-methyl-2-[(2,2,2-trifluoroethoxy)methyl]-4-[3-(trifluoromethyl)phenyl]thieno[2,3-d]pyrimidine] | 5 (91 to 100) | 5 (91 to 100) | 3 (51 to 70) | 40 to 41 °C
Cc1cc2c(-c3cccc(C(F)(F)F)c3)nc(-c3ccc(C(F)(F)F)cc3)nc2s1 [Compound No. 6-18, 6-methyl-2-[4-(trifluoromethyl)phenyl]-4-[3-(trifluoromethyl)phenyl]thieno[2,3-d]pyrimidine] | 3 (51 to 70) | 4 (71 to 90) | 1 (6 to 30) | 134 to 136 °C
Cc1cc2c(Oc3cccc(C(F)(F)F)c3)nc(OCC(F)(F)F)nc2s1 [Compound No. 6-129, 6-methyl-2-(2,2,2-trifluoroethoxy)-4-[3-(trifluoromethyl)phenoxy]thieno[2,3-d]pyrimidine] | 5 (91 to 100) | 4 (71 to 90) | 2 (31 to 50) | 124 to 125 °C

Reference: US20070010402A1, “Novel herbicides, usage thereof, novel thienopyrimidine derivatives, intermediates of the same, and process for production thereof” (NIHON NOHYAKU CO., LTD.,, priority 2002, published 2007)
